Experiment in all cases: Z'-LYTE kinase panel
Holding throughout (assay type): biochemical

One assay has as its target T1, CAMK2D (CaMKII delta) (Homo sapiens, UniProt Q13557).
T1 construct: purchased ThermoFisher (SelectScreen, Z'-LYTE)
An outline of the steps: (§1)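 Compounds were profiled across a 225-kinase standard panel. Each kinase was run in the standard Z′-LYTE assay and percentage inhibition was recorded at a compound concentration of 10 µM.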

The next assay deals with T2, CLK2 (Homo sapiens, UniProt P49760).
T2 construct: purchased ThermoFisher (SelectScreen, Z'-LYTE)
T2 sequence (P49760 whole entry): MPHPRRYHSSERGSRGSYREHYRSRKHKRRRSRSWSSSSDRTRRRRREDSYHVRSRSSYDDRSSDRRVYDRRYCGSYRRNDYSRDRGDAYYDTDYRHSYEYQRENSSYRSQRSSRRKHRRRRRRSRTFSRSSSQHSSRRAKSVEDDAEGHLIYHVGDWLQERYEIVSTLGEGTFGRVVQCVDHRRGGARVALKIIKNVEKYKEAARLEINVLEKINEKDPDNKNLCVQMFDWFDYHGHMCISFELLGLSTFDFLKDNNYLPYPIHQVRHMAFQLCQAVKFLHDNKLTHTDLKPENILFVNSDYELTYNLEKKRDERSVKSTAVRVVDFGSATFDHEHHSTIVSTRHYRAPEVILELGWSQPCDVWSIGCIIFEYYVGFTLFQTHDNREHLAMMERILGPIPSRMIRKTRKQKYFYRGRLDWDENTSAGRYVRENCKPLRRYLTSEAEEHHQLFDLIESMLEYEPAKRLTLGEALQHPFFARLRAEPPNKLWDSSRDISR
An outline of the steps:
as §1

In a further assay the target is T3, DAPK3 (ZIPK) (Homo sapiens, UniProt O43293).
T3 construct: purchased ThermoFisher (SelectScreen, Z'-LYTE)
T3 sequence (O43293 whole entry): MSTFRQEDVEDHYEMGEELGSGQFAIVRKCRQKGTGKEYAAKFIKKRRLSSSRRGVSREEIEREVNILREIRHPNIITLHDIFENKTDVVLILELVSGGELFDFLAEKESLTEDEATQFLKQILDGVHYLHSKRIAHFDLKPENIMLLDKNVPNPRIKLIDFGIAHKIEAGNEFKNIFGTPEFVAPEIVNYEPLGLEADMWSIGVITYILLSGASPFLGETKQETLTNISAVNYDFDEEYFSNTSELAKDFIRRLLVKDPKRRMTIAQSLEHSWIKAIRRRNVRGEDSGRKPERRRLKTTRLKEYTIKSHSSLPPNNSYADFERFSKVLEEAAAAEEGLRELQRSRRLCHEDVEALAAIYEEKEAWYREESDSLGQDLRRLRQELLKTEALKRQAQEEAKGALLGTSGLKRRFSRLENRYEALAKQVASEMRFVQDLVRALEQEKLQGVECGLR
The essentials:
as §1

For another assay, the target named is T4, FER (Homo sapiens, UniProt P16591).
T4 construct: purchased ThermoFisher (SelectScreen, Z'-LYTE)
T4 sequence (P16591 whole entry): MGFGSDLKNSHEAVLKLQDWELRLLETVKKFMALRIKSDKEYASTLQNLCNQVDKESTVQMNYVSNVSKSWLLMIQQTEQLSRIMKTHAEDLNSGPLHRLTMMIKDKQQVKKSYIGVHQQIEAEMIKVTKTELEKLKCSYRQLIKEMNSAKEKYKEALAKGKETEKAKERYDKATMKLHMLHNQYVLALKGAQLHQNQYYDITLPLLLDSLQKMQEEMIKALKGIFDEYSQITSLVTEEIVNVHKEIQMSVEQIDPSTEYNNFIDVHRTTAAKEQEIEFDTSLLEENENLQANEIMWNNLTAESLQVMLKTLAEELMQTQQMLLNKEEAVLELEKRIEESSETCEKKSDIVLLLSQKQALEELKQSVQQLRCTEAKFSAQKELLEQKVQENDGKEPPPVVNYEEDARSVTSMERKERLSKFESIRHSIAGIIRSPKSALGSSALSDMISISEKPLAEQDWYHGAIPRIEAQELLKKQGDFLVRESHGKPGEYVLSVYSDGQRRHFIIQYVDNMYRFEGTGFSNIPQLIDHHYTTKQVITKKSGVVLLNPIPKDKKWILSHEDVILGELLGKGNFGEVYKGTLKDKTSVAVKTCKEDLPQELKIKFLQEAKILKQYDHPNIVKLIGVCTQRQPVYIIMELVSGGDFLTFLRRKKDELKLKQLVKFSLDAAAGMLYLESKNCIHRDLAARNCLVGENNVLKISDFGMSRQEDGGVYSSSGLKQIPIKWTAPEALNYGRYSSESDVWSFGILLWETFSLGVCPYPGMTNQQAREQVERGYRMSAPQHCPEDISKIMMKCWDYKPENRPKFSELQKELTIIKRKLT
The essentials:
as §1

The target of a further assay is T5, MAP2K6 (MKK6) (Homo sapiens, UniProt P52564).
T5 construct: purchased ThermoFisher (SelectScreen, Z'-LYTE)
T5 sequence (P52564 1-334): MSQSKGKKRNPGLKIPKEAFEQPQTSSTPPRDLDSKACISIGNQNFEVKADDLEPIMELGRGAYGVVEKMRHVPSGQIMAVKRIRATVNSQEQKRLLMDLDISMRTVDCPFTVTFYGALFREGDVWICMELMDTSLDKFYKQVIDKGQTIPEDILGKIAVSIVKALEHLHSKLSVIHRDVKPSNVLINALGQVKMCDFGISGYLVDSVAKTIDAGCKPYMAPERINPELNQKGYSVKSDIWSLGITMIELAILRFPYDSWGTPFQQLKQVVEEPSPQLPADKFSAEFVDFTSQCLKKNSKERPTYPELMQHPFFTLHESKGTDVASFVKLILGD
Conditions: 10 µM compound; ATP 100. An outline of the steps:
as §1

The next assay deals with T6, MAPK8 (JNK1) (Homo sapiens, UniProt P45983).
T6 construct: purchased ThermoFisher (SelectScreen, Z'-LYTE)
T6 sequence (P45983 whole entry): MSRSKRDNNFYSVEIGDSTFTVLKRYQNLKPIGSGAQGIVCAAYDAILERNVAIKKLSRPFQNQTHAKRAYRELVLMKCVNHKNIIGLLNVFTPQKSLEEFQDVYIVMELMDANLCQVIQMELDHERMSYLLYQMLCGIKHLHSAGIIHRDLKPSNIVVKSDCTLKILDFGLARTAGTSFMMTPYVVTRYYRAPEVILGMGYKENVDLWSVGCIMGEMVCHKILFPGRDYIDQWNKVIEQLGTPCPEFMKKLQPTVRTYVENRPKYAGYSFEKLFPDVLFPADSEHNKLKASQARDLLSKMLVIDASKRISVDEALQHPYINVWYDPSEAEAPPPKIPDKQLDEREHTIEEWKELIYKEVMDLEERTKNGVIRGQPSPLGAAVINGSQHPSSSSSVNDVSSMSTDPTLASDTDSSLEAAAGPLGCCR
The following applies: 10 µM compound; ATP 100. An outline of the steps:
as §1

The next assay addresses T7, NEK9 (Homo sapiens, UniProt Q8TD19).
T7 construct: purchased ThermoFisher (SelectScreen, Z'-LYTE)
T7 sequence (Q8TD19 1-979): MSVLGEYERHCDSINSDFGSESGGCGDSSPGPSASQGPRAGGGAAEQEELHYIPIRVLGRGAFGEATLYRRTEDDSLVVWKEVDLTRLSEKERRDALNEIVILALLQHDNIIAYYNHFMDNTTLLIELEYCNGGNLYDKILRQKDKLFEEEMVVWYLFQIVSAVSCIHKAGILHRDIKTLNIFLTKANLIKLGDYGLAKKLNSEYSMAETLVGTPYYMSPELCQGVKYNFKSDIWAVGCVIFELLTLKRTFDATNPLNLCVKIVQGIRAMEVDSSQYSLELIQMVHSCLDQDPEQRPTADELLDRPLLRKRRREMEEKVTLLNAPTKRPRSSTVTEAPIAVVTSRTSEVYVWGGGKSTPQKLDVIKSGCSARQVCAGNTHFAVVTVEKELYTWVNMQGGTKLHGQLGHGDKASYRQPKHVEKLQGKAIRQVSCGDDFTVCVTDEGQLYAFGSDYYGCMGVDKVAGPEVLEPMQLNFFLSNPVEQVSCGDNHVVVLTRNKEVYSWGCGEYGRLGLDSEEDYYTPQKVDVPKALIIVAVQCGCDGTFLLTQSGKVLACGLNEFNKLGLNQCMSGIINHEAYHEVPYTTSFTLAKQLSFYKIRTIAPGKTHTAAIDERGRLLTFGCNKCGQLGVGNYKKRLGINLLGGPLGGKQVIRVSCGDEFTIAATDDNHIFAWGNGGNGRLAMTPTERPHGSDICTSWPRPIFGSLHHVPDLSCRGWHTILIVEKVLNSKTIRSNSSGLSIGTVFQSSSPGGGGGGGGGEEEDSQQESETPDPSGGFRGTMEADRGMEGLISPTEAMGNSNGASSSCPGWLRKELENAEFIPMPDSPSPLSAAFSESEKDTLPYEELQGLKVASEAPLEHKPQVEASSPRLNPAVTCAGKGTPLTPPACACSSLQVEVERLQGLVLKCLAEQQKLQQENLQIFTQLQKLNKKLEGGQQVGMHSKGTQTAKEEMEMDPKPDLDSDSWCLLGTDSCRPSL
The essentials: as §1

For a further assay, the target named is T8, PRKCZ (PKC zeta) (Homo sapiens, UniProt Q05513).
T8 construct: purchased ThermoFisher (SelectScreen, Z'-LYTE)
T8 sequence (Q05513 1-592): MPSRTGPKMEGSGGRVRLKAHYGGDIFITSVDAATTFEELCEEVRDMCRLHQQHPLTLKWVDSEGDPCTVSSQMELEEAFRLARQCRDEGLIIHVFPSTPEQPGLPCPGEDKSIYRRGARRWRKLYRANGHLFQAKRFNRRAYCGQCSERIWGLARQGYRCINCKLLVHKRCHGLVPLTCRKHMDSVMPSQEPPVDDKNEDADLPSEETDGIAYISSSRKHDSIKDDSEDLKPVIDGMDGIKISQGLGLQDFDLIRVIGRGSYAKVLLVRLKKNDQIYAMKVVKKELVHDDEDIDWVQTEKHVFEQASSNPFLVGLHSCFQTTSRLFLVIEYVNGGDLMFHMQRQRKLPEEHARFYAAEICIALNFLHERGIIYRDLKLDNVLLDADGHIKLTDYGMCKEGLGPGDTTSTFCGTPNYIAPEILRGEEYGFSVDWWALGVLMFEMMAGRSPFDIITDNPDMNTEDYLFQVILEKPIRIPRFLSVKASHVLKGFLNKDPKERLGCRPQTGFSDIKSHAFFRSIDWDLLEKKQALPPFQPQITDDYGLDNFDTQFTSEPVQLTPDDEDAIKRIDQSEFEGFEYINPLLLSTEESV
An outline of the steps:
as §1

The next assay deals with T9, SGK (SGK1) (Homo sapiens, UniProt O00141).
T9 construct: purchased ThermoFisher (SelectScreen, Z'-LYTE)
T9 sequence (O00141 1-431): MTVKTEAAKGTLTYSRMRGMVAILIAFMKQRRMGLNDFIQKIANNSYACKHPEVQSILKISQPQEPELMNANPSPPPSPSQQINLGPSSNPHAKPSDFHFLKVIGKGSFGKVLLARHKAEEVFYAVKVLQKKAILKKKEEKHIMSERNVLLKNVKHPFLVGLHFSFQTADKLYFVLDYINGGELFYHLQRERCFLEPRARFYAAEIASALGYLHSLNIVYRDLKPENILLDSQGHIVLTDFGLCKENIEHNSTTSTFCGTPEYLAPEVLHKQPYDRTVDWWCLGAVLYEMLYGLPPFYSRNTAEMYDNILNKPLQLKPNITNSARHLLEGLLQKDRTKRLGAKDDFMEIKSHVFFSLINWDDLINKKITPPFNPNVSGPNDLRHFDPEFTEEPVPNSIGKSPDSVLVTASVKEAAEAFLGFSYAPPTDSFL
The essentials:
as §1

A further assay concerns the target T10, YES1 (Homo sapiens, UniProt P07947).
T10 construct: purchased ThermoFisher (SelectScreen, Z'-LYTE)
An outline of the steps: as §1

This note sets out measurements from PMC4854315, “Discovery of a novel allosteric inhibitor-binding site in ERK5: comparison with the canonical kinase hinge ATP-binding site” (Acta Crystallographica. Section D, Structural Biology, 2016).

T10 sequence (P07947 whole entry): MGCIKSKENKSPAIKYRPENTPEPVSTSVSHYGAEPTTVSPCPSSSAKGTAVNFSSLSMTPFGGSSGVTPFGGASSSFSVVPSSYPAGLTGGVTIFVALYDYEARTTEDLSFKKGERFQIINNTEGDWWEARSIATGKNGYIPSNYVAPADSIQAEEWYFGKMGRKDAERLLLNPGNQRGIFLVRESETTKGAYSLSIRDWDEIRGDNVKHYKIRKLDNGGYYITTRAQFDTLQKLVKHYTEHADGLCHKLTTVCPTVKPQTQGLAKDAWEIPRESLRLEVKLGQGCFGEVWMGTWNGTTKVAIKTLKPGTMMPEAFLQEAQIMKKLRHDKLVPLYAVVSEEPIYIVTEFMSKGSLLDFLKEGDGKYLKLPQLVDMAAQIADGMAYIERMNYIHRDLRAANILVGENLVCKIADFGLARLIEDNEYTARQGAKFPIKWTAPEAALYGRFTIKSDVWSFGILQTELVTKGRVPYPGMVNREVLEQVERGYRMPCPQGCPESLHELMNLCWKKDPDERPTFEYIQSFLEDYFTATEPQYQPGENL

By inhibition is commonly meant the change of the read-out against control, counted positive when it falls. Turning to `Cc1ncc(-c2nc(Nc3ccc(C(=O)NCCN4CCCCC4)cc3)ncc2F)n1C(C)C` [Compound 3], the inhibition at 10 µM against CAMK2D (CaMKII delta) turned out to be 88%; at CLK2 it was 92%; on DAPK3 (ZIPK) it was 78%; against FER, 105%; against MAP2K6 (MKK6), 88%; against MAPK8 (JNK1) it was 96%. For the same compound, the inhibition at 10 µM against NEK9 stood at 18%; on PRKCZ (PKC zeta) it was 18%; at SGK (SGK1), 91%; at YES1, 85%.

For `Cc1cc(Nc2nc(N)nn2C(=O)NC(C)C)ccc1Cl` [Compound 5], the inhibition at 10 µM at CAMK2D (CaMKII delta) was -2.38%; against CLK2 it was 39%; against DAPK3 (ZIPK), -7.41%; against FER it was 22%; against MAP2K6 (MKK6), -1.06%; at MAPK8 (JNK1), -11%. In addition, the inhibition at 10 µM against NEK9 amounted to 1.46%; at PRKCZ (PKC zeta), 4%; at SGK (SGK1), 9%; against YES1, 46%.

With “XMD8-92 [Compound 2, reference compound]”, the “CAMK2D (CaMKII delta) % Inhibition” value at CAMK2D (CaMKII delta) (10 µM compound, ATP Km app) was found to be 63%. Moreover, the “CLK2 % Inhibition” value at CLK2 (10 µM compound, ATP Km app) was 6%. Besides, the “DAPK3 (ZIPK) % Inhibition” value on DAPK3 (ZIPK) (10 µM compound, ATP Km app) is on record as -0.894%. Further, on FER (10 µM compound, ATP Km app), the “FER % Inhibition” value is 79%. The “MAP2K6 (MKK6) % Inhibition” value on MAP2K6 (MKK6) stood at 8%. Further, at MAPK8 (JNK1), the “MAPK8 (JNK1) % Inhibition” value was 14%. Moreover, the “NEK9 % Inhibition” value on NEK9 (10 µM compound, ATP Km app) is recorded as -0.532%. In addition, on PRKCZ (PKC zeta) (10 µM compound, ATP Km app), the “PRKCZ (PKC zeta) % Inhibition” value was -2.33%. Further, the “SGK (SGK1) % Inhibition” value at SGK (SGK1) (10 µM compound, ATP Km app) is listed as 66%. Also, at YES1 (10 µM compound, ATP Km app), the “YES1 % Inhibition” value was determined as 41%.
